In patent US12043599B2, “Herbicidal compounds” (SYNGENTA PARTICIPATIONS AG, priority 2018, dated 2024):

Experiments:
Type in all cases: in vivo
Conditions in all cases: 250 g/h, evaluated after 13 days
[1] = test system: Echinochloa crus-galli (ECHCG); assay: Pre-emergence herbicidal glasshouse test, percentage damage
Procedure, shortened: (§1)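 Pots of the weeds sprayed either 1 day after sowing (pre-emergence) or after 8 days' growth (post-emergence), at 250 g/h in acetone/water with 0.5% Tween 20. Grown in a glasshouse at 24/16° C. day/night with 14 h light and 65% humidity. Damage scored 13 days later on a 1–5 scale (5=80-100%, 1=0-19%).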

[2] = test system: Setaria faberi (SETFA); assay: as above
Procedure, shortened: as §1

[3] = test system: Avena fatua (AVEFA); assay: as above
Procedure, shortened: as §1

[4] = test system: Alopecurus myosuroides (ALOMY); assay: as above
Procedure, shortened: as §1

[5] = test system: Lolium perenne (LOLPE); assay: as above
Procedure, shortened: as §1

[6] = test system: Avena fatua (AVEFA); assay: Post-emergence herbicidal glasshouse test, percentage damage
Procedure, shortened: as §1

[7] = test system: Alopecurus myosuroides (ALOMY); assay: as above
Procedure, shortened: as §1

[8] = test system: Lolium perenne (LOLPE); assay: as above
Procedure, shortened: as §1

[9] = test system: Setaria faberi (SETFA); assay: as above
Procedure, shortened: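 Wheat, barley and Setaria faberi were sprayed post-emergence after 8 days' growth (24/16 °C, 14 h light, 65% humidity) with compound in acetone/water (50:50) containing 0.5% Tween 20, at the indicated rates. On wheat, compounds were also applied with cloquintocet-mexyl at 50 g/ha. Damage was scored after 13 days on a five-point scale (5=80-100% to 1=0-19%).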

[10] = test system: Echinochloa crus-galli (ECHCG); assay: as above
Procedure, shortened: as §1

| Structure (SMILES) | ECHCG PRE percentage damage (five point scale) [1] | SETFA PRE percentage damage (five point scale) [2] | AVEFA PRE percentage damage (five point scale) [3] | ALOMY PRE percentage damage (five point scale) [4] | LOLPE PRE percentage damage (five point scale) [5] | AVEFA POST percentage damage (five point scale) [6] | ALOMY POST percentage damage (five point scale) [7] | LOLPE POST percentage damage (five point scale) [8] | SETFA POST percentage damage (five point scale) [9] | ECHCG POST percentage damage (five point scale) [10] |
| --- | --- | --- | --- | --- | --- | --- | --- | --- | --- | --- |
| CC#Cc1cc(C)c(C2C(=O)CC3(CCN(S(=O)(=O)CC4CC4)CC3)CC2=O)c(C)c1 [Compound A15] | 5 (5=80-100%) | 5 (5=80-100%) | 5 (5=80-100%) | 5 (5=80-100%) | 5 (5=80-100%) | 5 (5=80-100%) | 5 (5=80-100%) | 5 (5=80-100%) | 5 (5=80-100%) |  |
| CC#Cc1cc(C)c(C2C(=O)CC3(CCN(S(=O)(=O)c4ccccc4F)CC3)CC2=O)c(C)c1 [Compound A17] | 5 (5=80-100%) | 5 (5=80-100%) | 5 (5=80-100%) | 5 (5=80-100%) | 5 (5=80-100%) | 5 (5=80-100%) | 5 (5=80-100%) | 5 (5=80-100%) | 5 (5=80-100%) |  |
| CC#Cc1cc(C)c(C2C(=O)CC3(CCN(C(=O)c4ccc(C#N)cn4)CC3)CC2=O)c(C)c1 [Compound A20] | 5 (5=80-100%) | 5 (5=80-100%) | 5 (5=80-100%) | 5 (5=80-100%) | 5 (5=80-100%) | 5 (5=80-100%) | 5 (5=80-100%) | 5 (5=80-100%) | 5 (5=80-100%) |  |
| CC#Cc1cc(C)c(C2C(=O)CC3(CCN(C(=O)c4cccnn4)CC3)CC2=O)c(C)c1 [Compound A21] | 2 (2=20-39%) | 3 (3=40-59%) | 5 (5=80-100%) | 5 (5=80-100%) | 5 (5=80-100%) | 5 (5=80-100%) | 5 (5=80-100%) | 5 (5=80-100%) | 5 (5=80-100%) |  |
| CC#Cc1cc(C)c(C2C(=O)CC3(CCN(S(=O)(=O)c4cn(C)nc4C(F)(F)F)CC3)CC2=O)c(C)c1 [Compound A40] | 5 (5=80-100%) | 5 (5=80-100%) | 5 (5=80-100%) | 5 (5=80-100%) | 5 (5=80-100%) | 5 (5=80-100%) | 5 (5=80-100%) | 5 (5=80-100%) | 5 (5=80-100%) |  |
| CC#Cc1cc(C)c(C2C(=O)CC3(CCN(C(=O)NC(=O)c4ccccn4)CC3)CC2=O)c(OC)c1 [Compound A79] | 4 (4=60-79%) | 4 (4=60-79%) | 5 (5=80-100%) | 4 (4=60-79%) | 5 (5=80-100%) | 5 (5=80-100%) | 5 (5=80-100%) | 5 (5=80-100%) | 5 (5=80-100%) |  |
| CC#Cc1cc(C)c(C2C(=O)CC3(CCN(c4cncnc4)CC3)CC2=O)c(C)c1 [Compound A87] | 5 (5=80-100%) | 5 (5=80-100%) | 3 (3=40-59%) | 4 (4=60-79%) | 5 (5=80-100%) | 5 (5=80-100%) | 5 (5=80-100%) | 5 (5=80-100%) | 5 (5=80-100%) |  |
| CC#Cc1cc(C)c(C2=C(O)CC3(CCN(C=O)CC3)CC2=O)c(C)c1 [Compound A96] | 5 (5=80-100%) | 5 (5=80-100%) | 5 (5=80-100%) | 5 (5=80-100%) | 5 (5=80-100%) | 5 (5=80-100%) | 5 (5=80-100%) | 5 (5=80-100%) | 5 (5=80-100%) |  |
| CC#Cc1cc(C)c(C2C(=O)CC3(CCN(S(=O)(=O)Cc4ccon4)CC3)CC2=O)c(C)c1 [Compound A97] | 5 (5=80-100%) | 5 (5=80-100%) | 5 (5=80-100%) | 4 (4=60-79%) | 5 (5=80-100%) | 5 (5=80-100%) | 5 (5=80-100%) | 5 (5=80-100%) | 5 (5=80-100%) |  |
| CC#Cc1cc(C)c(C2C(=O)CC3(CCN(S(=O)(=O)c4cccnc4)CC3)CC2=O)c(C)c1 [Compound A98] | 4 (4=60-79%) | 3 (3=40-59%) | 5 (5=80-100%) | 4 (4=60-79%) | 5 (5=80-100%) | 5 (5=80-100%) | 5 (5=80-100%) | 5 (5=80-100%) | 5 (5=80-100%) |  |
| CC#Cc1cc(C)c(C2=C(OC(=O)OC)CC3(CCN(C(=O)c4ncccn4)CC3)CC2=O)c(C)c1 [Compound P22] | 5 (5=80-100%) | 5 (5=80-100%) | 5 (5=80-100%) | 5 (5=80-100%) | 5 (5=80-100%) | 5 (5=80-100%) | 5 (5=80-100%) | 5 (5=80-100%) | 5 (5=80-100%) |  |
| CC#Cc1cc(C)c(C2=C(OC(=O)OC)CC3(CCN(C(=O)C4COC4)CC3)CC2=O)c(C)c1 [Compound P44] | 5 (5=80-100%) | 5 (5=80-100%) | 5 (5=80-100%) | 5 (5=80-100%) | 5 (5=80-100%) | 5 (5=80-100%) |  | 5 (5=80-100%) | 5 (5=80-100%) | 5 (5=80-100%) |
